Laboratory results published in patent EP0738149B1 (priority 1994, dated 1995).
Where a name gives a salt, the structure may show the parent alone.

How the values were obtained:
in vivo = conditions: rat, in vivo, po
Method: (§1) Neurotoxicity of the claimed agents was also assessed in mice (i.p. administration) by the rotorod ataxia test and/or in rats (p.o. administration) by positional sense test and gait stance test. […] The term quantitating the neurotoxicity is the medial neurological toxic dose (TD50), was determined in the above tests.

[1] = Neurotoxicity in mice (rotorod ataxia test), i.p.; conditions: mouse, in vivo, ip, MICE TD50, mice
Method: as §1

mice = assay: Maximal electroshock (MES) model in mice, i.p.;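 on all read-outs here: Electroshock-induced convulsion model serving to demonstrate antiepileptic efficacy against generalized and partial seizures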; type: in vivo; conditions: for ED50: Mus musculus, ip, Table 15
rats [2] = assay: Maximal electroshock (MES) model in rats, p.o.;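 further: rat MES model gauging antiepileptic efficacy versus generalized and partial seizures after oral dosing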; type: in vivo; conditions: rats, p.o.; Table 15
male ICR albino mice = assay: Hypobaric hypoxia survival time in mice; type: in vivo
Method: Dessicator B was disconnected and allowed to equilibrate with room air whilst dessicator A was evacuated to a pressure of 100mmHg. […] The survival time from the moment of induction of hypoxia to the time of cessation of respiration was recorded for each mouse for a maximum of 15 minutes after which time room air was reintroduced to dessicator B. Survivors were monitored for signs of lethargy or vitality.
Effect of drug treatment was assessed as the percent of the survival time of the drug treated group with respect to the saline injected or vehicle injected control group. Control groups were run twice, before and after each experimental group and consisted of 12-16 mice in groups of 4 mice. Each experimental group always consisted of 4 mice to ensure a constant residual volume of oxygen in all tests. The effect of each dose of test drug was determined in duplicate i.e. two groups of 4 mice.
All drugs were administered intra-peritoneally at the dose indicated one hour prior to exposure to hypoxia.

rats [3] = assay: Neurotoxicity in rats (positional sense test and gait stance test), p.o.; conditions: rats, p.o.; Table 16
Method: as §1

Male mongolian gerbils = assay: Global brain ischemia in gerbils (CA1 pyramidal neurons); type: in vivo; conditions: 3 injections, fraction of hippocampi protected from ischemia, 14 days post-ischemia
Method: Each artery was clamped for 5 minutes with aneurysm clips to produce global brain ischemia. The anesthesia was discontinued upon clamping. After 5 minutes the clamps were removed and the wound closed with skin clips.
For treatment, the test compound or vehicle were injected intra-peritoneally (ip) in a volume of 50 microliters of solvent per 10g body weight. The first injection was given two minutes after clamp removal, and thereafter daily for the next 2 post-operative days (total of 3 injections).
Seven groups each of 4-8 animals were compared: • I. Control; (sham- or unoperated and saline treated), • II. Vehicle treated, unoperated (when solvent is other than saline), • III. Ischemia - untreated or saline treated), • IV. Ischemia - vehicle treated (when solvent is other than saline), • V. Ischemia - Test compound treated, one sub-group per concentration tested, • VI. Ischemia and pentobarbital (40 mg/kg) as positive control).
Analysis of neuronal damage was performed 14 days post-ischemia by counting pyramidal neurons throughout the CA1 layer of the anterior hippocampus in […] thick (paraffin) coronal brain sections stained with hematoxylin and erosin.
Percent Protection values represent the fraction of hippocampi protected from ischemia in a group of animals treated with the stated dose of compound.

[4] = system: mechanically dissociated neonatal rat cerebellum; assay: Reversal of NMDA induced cell death in cultures of neonatal rat cerebellum; type: cell-based; conditions: for SURVIVING CELL IN CULTURE: relative to control (100%)
Method: The cerebellum was aseptically dissociated from 6 or 7-day old rat pups and placed in a 15ml sterile plastic conical tube containing 3ml of Dulbecco's modified Eagle's medium (DMEM) with a high glucose concentration ([…]) and 2mM (v/v) L-glutamine and an antibiotic antimitotic mixture. The cerebella were then dissociated after 20-25 passages through a sterile 13 gauge, 10cm long stainless steel needle attached to a 5ml syringe with an inserted 45 micrometer pore nylon sieve. The dissociated cells were centrifuged at 200g for 5 minutes. The supernatant was discarded and the cells resuspended in medium enriched with 15% (v/v) heat inactivated fetal calf serum. Cell viability was determined by the tryptan blue exclusion test.
Cells were plated at a density of 200/mm^2 on poly-L-lysine coated surfaces. Poly-L-lysine coated glass coverslips were prepared at least one hour in advance of plating by immersing sterile coverslips in sterile distilled water solution containing 15 microgram/ml poly-L-lysine, and washing in sterile water just prior to use. The plated cells were covered with enriched medium and incubated at 37°C in an atmosphere of 5% CO2 in air and 97% humidity. After three days in culture, the media was replaced with media containing the desired test compound. Each test compound was tested in duplicate. Toxic-dose response was determined for each compound.
Four groups were run in each set of experiments; • I. Control, consisting of enriched media alone, • II. N-methyl-D-aspartate (NMDA, 1mM for 3 hours) as the cytotoxic challenge, • III. Test compound plus NMDA, and • IV. Positive control, spermine(0.01 micromoles) plus NMDA.
Nerve cell survival was evaluated by phase contrast microscopy and tryptan blue staining after 24 hours.
Surviving cells in culture are measured relative to control (100%), as described above. Percent protection is the Cell Survival for the test compound minus the NMDA effect. Thus, maximal protection is 100% minus 30% NMDA effect i.e. […]. The Effective Protection was calculated as the percent of the Percent Protection (X) divided by the maximal protection value (e.g. X x 100/70).

[5] = 50 mg/kg ip one hour prior to hypoxia
[6] = 100 mg/kg ip one hour prior to hypoxia
[7] = positive control, 0.01 micromoles plus NMDA

c1ccc2c(c1)CCC2NC1CCc2ccccc21 (racemic) [Example 43, (rac)-M,N-Di-(1-indanyl)amine.HCl]
TD50 (in vivo): > 50 mg/kg
TD50 ([1]; Table 15): < 100 mg/kg
ED50 (mice): < 100 mg/kg
RATS MES 50 (rats [2]): <50 mg/kg

CN1C(=O)CN=C(c2ccccc2)c2cc(Cl)ccc21 [Diazepam, diazepam, reference compound]
PROTECTION % OF RESPECTIVE CONTROL (male ICR albino mice; 5 mg/kg ip 0.5 hour prior to hypoxia): 249±166 % OF RESPECTIVE CONTROL
PROTECTION % OF RESPECTIVE CONTROL (male ICR albino mice; 10 mg/kg ip 0.5 hour prior to hypoxia): 430±59 % OF RESPECTIVE CONTROL

CN[C@H]1CCc2ccccc21 [Example 14, (S)-N-Methyl-1-aminoindan.HCl]
RATS TD50 (rats [3]): >142 mg/kg
TD50 (in vivo): > 142 mg/kg
TD50 ([1]; Table 15): 100 mg/kg
TD50 ([1]; Table 16): 100 mg/kg

NC1Cc2ccccc21 (centres unmarked) [Example 27, 1-Aminobenzocyclobutene.HCl]
TD50 (in vivo): > 50 mg/kg
TD50 ([1]; Table 15): > 100 mg/kg
ED50 (mice): < 100 mg/kg
RATS MES 50 (rats [2]): <50 mg/kg

COc1ccc2c(c1OC)CC[C@@H]2N.Cl [Example 30, (S)-4,5-Dimethoxy-1-aminoindan, HCl]
PROTECTION % OF RESPECTIVE CONTROL (male ICR albino mice; [5]): 265±284 % OF RESPECTIVE CONTROL
PROTECTION % OF RESPECTIVE CONTROL (male ICR albino mice; [6]): 379±202 % OF RESPECTIVE CONTROL

Cl.N[C@@H]1CCc2ccc(O)cc21 [Example 35, (R)-6-Hydroxy-1-aminoindan.HCl]
PERCENT PROTECTION (Male mongolian gerbils; 0.1 mg/kg ip): 25.0%
PERCENT PROTECTION (Male mongolian gerbils; 1.0 mg/kg ip): 37.5%
PERCENT PROTECTION (Male mongolian gerbils; 10.0 mg/kg ip): 37.5%
SURVIVING CELL IN CULTURE ([4]; 0.005 µM + NMDA 1mM for 3 hours): 60%
PERCENT PROTECTION ([4]; 0.005 µM + NMDA, Cell Survival minus the NMDA effect): 30%
EFFECTIVE PROTECTION ([4]; 0.005 µM + NMDA, X x 100/70): 43%
SURVIVING CELL IN CULTURE ([4]; 0.010 µM + NMDA 1mM for 3 hours): 34%
PERCENT PROTECTION ([4]; 0.010 µM + NMDA, Cell Survival minus the NMDA effect): 4%
EFFECTIVE PROTECTION ([4]; 0.010 µM + NMDA, X x 100/70): 6%
SURVIVING CELL IN CULTURE ([4]; 0.100 µM + NMDA 1mM for 3 hours): 30%
PERCENT PROTECTION ([4]; 0.100 µM + NMDA, Cell Survival minus the NMDA effect): 0%
EFFECTIVE PROTECTION ([4]; 0.100 µM + NMDA, X x 100/70): 0%

C[C@@H]1Cc2ccccc2[C@H]1N [Example 39, (rac)-trans-2-Methyl-1-aminoindan.HCl]
TD50 (in vivo): > 50 mg/kg
TD50 ([1]; Table 15): < 100 mg/kg
ED50 (mice): < 100 mg/kg
RATS MES 50 (rats [2]): <50 mg/kg
PROTECTION % OF RESPECTIVE CONTROL (male ICR albino mice; [5]): 600±213 % OF RESPECTIVE CONTROL
PROTECTION % OF RESPECTIVE CONTROL (male ICR albino mice; [6]): 798±249 % OF RESPECTIVE CONTROL

C[C@H]1Cc2ccccc2[C@H]1N [Example 40, (rac)-cis-2-Methyl-1-aminoindan.HCl]
TD50 (in vivo): > 50 mg/kg
TD50 ([1]; Table 15): < 100 mg/kg
ED50 (mice): < 100 mg/kg
RATS MES 50 (rats [2]): <50 mg/kg
PROTECTION % OF RESPECTIVE CONTROL (male ICR albino mice; [5]): 374±190 % OF RESPECTIVE CONTROL
PROTECTION % OF RESPECTIVE CONTROL (male ICR albino mice; [6]): 569±173 % OF RESPECTIVE CONTROL

C#CCN[C@@H]1CCc2ccccc21.CS(=O)(=O)O [F, (R)-N-propargyl-1-aminoindan mesylate salt]
ED50 (mice): < 300 mg/kg

N[C@H]1CCc2ccc(F)cc21 [K, (S)-6-fluoro-1-aminoindan]
TD50 ([1]; Table 15): < 250 mg/kg
TD50 ([1]; Table 16): < 250 mg/kg
ED50 (mice): 115 mg/kg
activity in the MES model in mice (mice; statement in words): showed activity

CCCC(C)C1(CC)C(=O)NC(=O)NC1=O (centres unmarked) [Pentobarbitone, sodium pentobarbital, reference compound]
PROTECTION % OF RESPECTIVE CONTROL (male ICR albino mice; 20 mg/kg ip 0.5 hour prior to hypoxia): 325±166 % OF RESPECTIVE CONTROL
PROTECTION % OF RESPECTIVE CONTROL (male ICR albino mice; 40 mg/kg ip 0.5 hour prior to hypoxia): 446±10.5 % OF RESPECTIVE CONTROL

NCCCNCCCCNCCCN [Spermine, spermine, reference compound]
EFFECTIVE PROTECTION [4, 7]: 74%
PERCENT PROTECTION [4, 7]: 52%
SURVIVING CELL IN CULTURE [4, 7]: 82%
